Assay results from patent publication US3971779A, “7-[2-(5-Amino-1,3,4-thiadiazol-2-ylthio)acetamido]cephalosporins” (American Home Products Corporation, priority 1975, dated 1976).
Where two headings read alike, the source gives them in different places.

Experiments:
Assay in all cases: agar serial dilution MIC
Type in all cases: cell-based
[1] = test system: Klebsiella pneumoniae (KL PN) 10031
Protocol: (§1) A stock solution of 7-[2-(4,5-dihydro-5-imino-1,3,4-thiadiazol-2-ylthio)acetamido]cephalosporanic acid as the hydrobromic acid addition salt containing 2,500 μg. of the active moiety is prepared in phosphate buffer. Two fold serial dilutions are prepared with phosphate buffer. One milliliter (ml.) quantities of each dilution are incorporated in 9 ml. seen agar in sterile Petri plates. The hardened surface is innoculated with test organisms using a Steers replicating device. The plates are incubated at 35° C. for 18 hours.
(§2) The test organisms are Bacillus subtilis (BA SU) 6633; Staphylococcus aureus (ST AU) 6538P, Smith CHP, and 3-180; Mycobacterium smegmatis (MY SM) 10143; Neisseria catarrhalis (NE CA) 8193; Pseudonomas aeruginosa (PS AE) 10145; Escherichia coli (ES CO) 9637, and 920; Escherichia intermedia (ES IN) 65-1; Salmonella paratyphi (SA PA) 11737; Enterobacter aerogenes (EN AE) 13048; Klebsiella pneumoniae (KL PN) 10031; Bordetella bronchiseptica (BO BR) 4617; Proteus vulgaris (PR VU) 6896; and Herellea species (HE SP) 9955. These organisms are grown for 18 hours in Brain heart infusion at 35° C. Prior to use the cultures are diluted 10 fold with the infusion, except in the case of Mycobacterium. The latter is grown in Emerson's broth for 5 days at 28° C. in shaker flasks and used undiluted.
(§3) A second preparation of 7-[2-(4,5-dihydro-5-imino-1,3,4-thiadiazol-2-ylthio)acetamido]cephalosporanic acid prepared as described in Example 1 is tested as described in Example 2. The minimum inhibitory concentrations obtained are as follows: […]

[2] = test system: Neisseria catarrhalis (NE CA) 8193
Protocol: as §1, §2, §3

[3] = test system: Mycobacterium smegmatis (MY SM) 10143; details: Mycolicibacterium smegmatis
Protocol: as §1, §2, §3

[4] = test system: Escherichia coli (ES CO) 9637
Protocol: as §1, §2, §3

[5] = test system: Staphylococcus aureus (ST AU) 3-180; details: 18 h
Protocol: as §1, §2, §3

[6] = test system: Staphylococcus aureus (ST AU) Smith
Protocol: as §1, §2, §3

[7] = test system: Escherichia intermedia (ES IN) 65-1; details: Citrobacter intermedius
Protocol: as §1, §2, §3

[8] = test system: Bordetella bronchiseptica (BO BR) 4617; details: 18 h
Protocol: as §1, §2, §3

[9] = test system: Staphylococcus aureus (ST AU) 6538P
Protocol: as §1, §2, §3

[10] = test system: Escherichia coli (ES CO) 920
Protocol: as §1, §2, §3

[11] = test system: Bacillus subtilis (BA SU) 6633
Protocol: as §1, §2, §3

[12] = test system: Salmonella paratyphi (SA PA) 11737; details: Salmonella enterica, 18 h
Protocol: as §1, §2, §3

[13] = test system: Herellea species (HE SP) 9955
Protocol: as §1, §2, §3

[14] = test system: Staphylococcus aureus (ST AU) CHP
Protocol: as §1, §2, §3

[15] = test system: Pseudonomas aeruginosa (PS AE) 10145
Protocol: as §1, §2, §3

[16] = test system: Proteus vulgaris (PR VU) 6896
Protocol: as §1, §2, §3

[17] = test system: Enterobacter aerogenes (EN AE) 13048; details: Klebsiella aerogenes
Protocol: as §1, §2, §3

Klebsiella ozaenae 11296 = test system: Klebsiella ozaenae 11296
Protocol: as §1, §2
(§4) Following the procedure of Example 2 but substituting the organisms listed below the same preparation of 7-[2-(4,5-dihydro-5-imino-1,3,4-thiadiazol-2-ylthio)acetamido]cephalosporanic acid (Compound A) as used in Example 3, a third sample of the same compound, prepared as described in Example 1 (Compound B) and 7-[2-(5-acetamido-1,3,4-thiadiazol-2-ylthio)acetamido]cephalosporanic acid (Compound C) are tested to obtain the results shown: […]

[18] = test system: Klebsiella rhinoscleromatis 13884; details: Klebsiella pneumoniae, Example 4
Protocol: as §1, §2, §4

Salmonella typhi 19430 = details: Salmonella enterica
Protocol: as §1, §2, §4

[19] = test system: Acinetobacter calcoaceticus 9957
Protocol: as §1, §2, §4

[20] = test system: Providencia alcalifaciens 9886; details: Example 4
Protocol: as §1, §2, §4

[21] = test system: Salmonella enteritidis 13076; details: Salmonella enterica, Example 4
Protocol: as §1, §2, §4

[22] = test system: Salmonella cholera-suis 13312
Protocol: as §1, §2, §4

Shigella flexneri 12025 = details: Example 4
Protocol: as §1, §2, §4

Proteus mirabilis 9921 = details: Example 4
Protocol: as §1, §2, §4

[23] = test system: Enterobacter havniae 11604; details: Example 4
Protocol: as §1, §2, §4

[24] = 18 h, second preparation (Example 3), read-out: minimum inhibitory concentration (MIC)
[25] = first preparation (Example 2), HBr salt, 35° C., 18 hours, read-out: minimum concentration (MIC) required to completely inhibit growth
[26] = read-out: minimum concentration (MIC) required to completely inhibit growth
[27] = second preparation (Example 3), read-out: minimum inhibitory concentration (MIC)

Measured: MIC

CC(=O)OCC1=C(C(=O)O)N2C(=O)C(NC(=O)CSc3n[nH]c(=N)s3)C2SC1 (stereo not drawn) [7-[2-(4,5-Dihydro-5-Imino-1,3,4-Thiadiazol-2-ylthio)Acetamido]Cephalosporanic Acid]
3.9 µg/mL: [1]; [24] | [1]; [25] | [5]; [27] | [8]; [27] | [10]; [24] | [12]; [26] | [12]; read-out: minimum inhibitory concentration (MIC) | [16]; [24]
1.95 µg/mL: [5]; [26] | [14]; 18 h, read-out: minimum inhibitory concentration (MIC) | Klebsiella ozaenae 11296 | Salmonella typhi 19430 | [21] | [22]
0.976 µg/mL: [9]; [24] | [14]; [25]
62.5 µg/mL: [2]; [24]
15.6 µg/mL: [10]; [25] | [16]; [25]
0.488 µg/mL: [6]; [24] | [9]; [25]
> 250 µg/mL: [3]; [24] | [3]; [25] | [7]; [24] | [7]; [25] | [13]; [24] | [13]; [25] | [15]; [24] | [15]; [25] | [17]; [24] | [17]; [25] | [18] | [20] | [23]
0.244 µg/mL: [6]; [25]
31.3 µg/mL: [2]; [25] | [4]; [24] | Shigella flexneri 12025; listed as A
7.81 µg/mL: [4]; [25] | [8]; [26] | [19] | Shigella flexneri 12025; listed as B | Proteus mirabilis 9921
0.122 µg/mL: [11]; [24] | [11]; [25]
